Bounds are passed on as bounds.

Among the data in patent publication US9409914B2, “Triazolo[4,5-d]pyrimidine derivatives” (Merck Patent GmbH, priority 2012, dated 2016) are IC50 values, retold here.

Assay [1] addresses T1, GCN2 (Homo sapiens, UniProt Q9P2K8). In words: GCN2 enzyme assay (TR-FRET Lanthascreen, phosphorylation of GFP-eIF2alpha). The format is biochemical. Conditions: 10 μM ATP, 80 nM GFP-eIF2alpha, 30 nM GCN2, room temperature. The gist of the method: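 Two-step TR-FRET (Lanthascreen) format: GCN2 incubated at room temperature with 10 μM ATP and 80 nM GFP-labelled eIF2alpha, then stopped with EDTA. Phospho-eIF2alpha detected by Tb-labelled antibody, excitation 340 nm; activity taken from the 520/495 nm emission ratio.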
(In general: In TR-FRET formats the signal depends on donor and acceptor labels being close together.)
Target sequence in this assay (Q9P2K8 whole entry, species assumed): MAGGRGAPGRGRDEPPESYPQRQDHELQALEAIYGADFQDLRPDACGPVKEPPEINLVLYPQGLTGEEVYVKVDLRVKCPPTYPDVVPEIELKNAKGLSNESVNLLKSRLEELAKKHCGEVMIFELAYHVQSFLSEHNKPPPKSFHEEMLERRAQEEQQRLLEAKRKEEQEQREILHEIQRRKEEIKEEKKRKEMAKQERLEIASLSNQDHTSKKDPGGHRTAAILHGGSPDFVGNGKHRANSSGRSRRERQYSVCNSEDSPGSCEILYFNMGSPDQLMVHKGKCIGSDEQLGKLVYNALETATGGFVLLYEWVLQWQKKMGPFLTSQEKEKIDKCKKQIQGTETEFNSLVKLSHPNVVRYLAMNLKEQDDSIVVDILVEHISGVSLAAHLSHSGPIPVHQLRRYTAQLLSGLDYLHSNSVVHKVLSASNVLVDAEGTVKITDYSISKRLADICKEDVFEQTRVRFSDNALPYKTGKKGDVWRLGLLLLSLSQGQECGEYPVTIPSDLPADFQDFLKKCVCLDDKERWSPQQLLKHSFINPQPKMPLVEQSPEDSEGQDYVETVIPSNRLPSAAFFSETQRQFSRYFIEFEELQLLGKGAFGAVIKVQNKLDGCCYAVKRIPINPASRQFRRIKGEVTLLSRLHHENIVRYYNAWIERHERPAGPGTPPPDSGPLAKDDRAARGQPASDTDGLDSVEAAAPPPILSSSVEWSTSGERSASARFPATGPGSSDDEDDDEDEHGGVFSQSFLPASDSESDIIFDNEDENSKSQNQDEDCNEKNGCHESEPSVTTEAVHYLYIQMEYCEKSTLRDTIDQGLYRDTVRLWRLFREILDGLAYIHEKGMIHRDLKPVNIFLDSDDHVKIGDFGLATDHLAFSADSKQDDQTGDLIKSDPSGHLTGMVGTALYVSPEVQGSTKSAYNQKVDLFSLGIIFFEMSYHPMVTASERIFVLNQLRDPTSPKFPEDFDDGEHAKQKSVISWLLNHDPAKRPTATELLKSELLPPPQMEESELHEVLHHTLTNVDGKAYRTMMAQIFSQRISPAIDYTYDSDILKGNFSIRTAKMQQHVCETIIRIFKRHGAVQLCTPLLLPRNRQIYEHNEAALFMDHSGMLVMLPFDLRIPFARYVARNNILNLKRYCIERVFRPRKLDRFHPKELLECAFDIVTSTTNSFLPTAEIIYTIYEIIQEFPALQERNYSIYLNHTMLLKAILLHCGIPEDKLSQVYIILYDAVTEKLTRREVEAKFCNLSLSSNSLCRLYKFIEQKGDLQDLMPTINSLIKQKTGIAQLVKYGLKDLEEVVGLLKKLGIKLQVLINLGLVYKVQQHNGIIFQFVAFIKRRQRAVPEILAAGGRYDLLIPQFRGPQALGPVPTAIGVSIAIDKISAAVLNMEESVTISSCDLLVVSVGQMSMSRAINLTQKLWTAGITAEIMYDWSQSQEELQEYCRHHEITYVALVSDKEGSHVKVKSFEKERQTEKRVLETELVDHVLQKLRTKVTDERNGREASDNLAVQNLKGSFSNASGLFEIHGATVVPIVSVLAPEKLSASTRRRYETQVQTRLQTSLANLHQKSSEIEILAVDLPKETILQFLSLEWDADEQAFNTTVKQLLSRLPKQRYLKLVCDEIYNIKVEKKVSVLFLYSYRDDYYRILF

Assay [2] addresses T1, GCN2. In words: Cellular assay for GCN2 activity (phospho-eIF2alpha immunocytochemistry, tryptophanol-stimulated U2OS cells). Set-up: endogenous in cells; host or cells: U2OS. It is filed as cell-based. Conditions: 2 hours compound, then 600 μM tryptophanol 30 minutes, anti-phospho-eIF2alpha, read-out: IC50 GCN2 (cell assay). The protocol:
Cellular Assay for the Determination of Compound Activities
Human U2OS cells (2000 cells/well) are seeded into 384-well plates and incubated for 20 hours.
The next day, the cells are treated with the test compounds and incubated for 2 hours. Then, tryptophanol, at a final concentration of 600 μM, is added to the cells and those are incubated for 30 minutes.
The analysis of cellular GCN2 activities is done by immunocytochemistry. Briefly, cells are fixated on the well surfaces by formaldehyde and permeabilised with Triton X-100. The primary antibody (anti-phospho-eIF2alpha (Ser51, Cell Signalling Technology, #3398) is incubated on the treated cells for 20 hours, followed by a 60 minutes incubation of the secondary antibody (anti-rabbit-IgG-Alexa 488; Molecular Probes #11008). The analysis and quantification of phosphorylated GCN2 is done by scanning the plates in the Acumen Explorer system (TTPLabtech). The obtained data are normalised against the untreated control wells (DMSO only) and expressed as % effect values. The determination of IC50 values is done by using the Graph Pad Prism software.
Target sequence in this assay (Q9P2K8 whole entry): as the sequence (Q9P2K8 whole entry, species assumed) above

Usually IC50 stands for the concentration at which inhibition is half-maximal. As for `CC(C)(OCCO)c1ccc(-n2nnc3cnc(Nc4cnn(C5CCOCC5)c4)nc32)cc1` [Compound A130, 2-[1-methyl-1-(4-{5-[1-(tetrahydro-pyran-4-yl)-1H-pyrazol-4-ylamino]-[1,2,3]triazolo[4,5-d]pyrimidin-3-yl}-phenyl)-ethoxy]-ethanol], the IC50 against GCN2 [1] was less than 300 nM; at GCN2 [2], 300 to 3000 nM.
For `CCOc1ccc(-n2nnc3cnc(Nc4cnn(CCC5CCN(C(C)=O)CC5)c4)nc32)cc1` [Compound A100, 1-[4-(2-{4-[3-(4-ethoxy-phenyl)-3H-[1,2,3]triazolo[4,5-d]pyrimidin-5-ylamino]-pyrazol-1-yl}-ethyl)-piperidin-1-yl]-ethanone], the IC50 was less than 300 nM against GCN2 [1] and 3000 to 50000 nM on GCN2 [2].
For `CCn1cc(-n2nnc3cnc(Nc4cnn(C5CCN(C)CC5)c4)nc32)cn1` [Compound A79, [3-(1-ethyl-1H-pyrazol-4-yl)-3H-[1,2,3]triazolo[4,5-d]pyrimidin-5-yl]-[1-(1-methyl-piperidin-4-yl)-1H-pyrazol-4-yl]-amine], in that order: less than 300 nM and 300 to 3000 nM.
For `COCCOc1ccc(-n2nnc3cnc(Nc4cnn(C5CCOCC5)c4)nc32)cc1` [Compound A87, {3-[4-(2-methoxy-ethoxy)-phenyl]-3H-[1,2.3]triazolo[4,5-d]pyrimidin-5-yl}-[1-(tetrahydro-pyran-4-yl)-1H-pyrazol-4-yl]-amine] the same measures were less than 300 nM and 300 to 3000 nM.
For `CCn1cc(Nc2ncc3nnn(-c4cnn(CC)c4)c3n2)cn1` [Compound A106, (1-ethyl-1H-pyrazol-4-yl)-[3-(1-ethyl-1H-pyrazol-4-yl)-3H-[1,2,3]triazolo[4,5-d]pyrimidin-5-yl]-amine], in that order: less than 300 nM and 3000 to 50000 nM.
On to `CCn1cc(Nc2ncc3nnn(-c4ccc(C(C)(C)F)cc4)c3n2)cn1` [Compound A128, (1-ethyl-1H-pyrazol-4-yl)-{3-[4-(1-fluoro-1-methyl-ethyl)-phenyl]-3H-[1,2,3]triazolo[4,5-d]pyrimidin-5-yl}-amine], for which the IC50 against GCN2 [1] was less than 300 nM; at GCN2 [2] it was 300 to 3000 nM.
For `CCOc1ccc(-n2nnc3cnc(Nc4cnn(CCN5CCOCC5)c4)nc32)cc1` [Compound A115, [3-(4-ethoxy-phenyl)-3H-[1,2,3]triazolo[4,5-d]pyrimidin-5-yl]-[1-(2-morpholin-4-yl-ethyl)-1H-pyrazol-4-yl]-amine], in that order: less than 300 nM and 3000 to 50000 nM.
For `CCOc1ccc(-n2nnc3cnc(Nc4cnn(CC)c4)nc32)cc1` [Compound A46, [3-(4-ethoxy-phenyl)-3H-[1,2,3]triazolo[4,5-d]pyrimidin-5-yl]-(1-ethyl-1H-pyrazol-4-yl)-amine], in that order: less than 300 nM and 300 to 3000 nM.
For `CCn1cc(Nc2ncc3nnn(-c4ccc(C(C)(C)O)cc4)c3n2)cn1` [Compound A121, 2-{4-[5-(1-ethyl-1H-pyrazol-4-ylamino)-[1,2,3]triazolo[4,5-d]pyrimidin-3-yl]-phenyl}-propan-2-ol], in that order: less than 300 nM and 300 to 3000 nM.
Take `CCOc1ccc(-n2nnc3cnc(Nc4cnn(CCOC(C)(C)C)c4)nc32)cc1` [Compound A51, [1-(2-tert-butoxy-ethyl)-1H-pyrazol-4-yl]-[3-(4-ethoxy-phenyl)-3H-[1,2,3]triazolo[4,5-d]pyrimidin-5-yl]-amine]: the IC50 is less than 300 nM on GCN2 [1] and 300 to 3000 nM on GCN2 [2].
For `CCn1cc(Nc2ncc3nnn(-c4cccc(C(N)=O)c4)c3n2)cn1` [Compound A68, 3-[5-(1-ethyl-1H-pyrazol-4-ylamino)-[1,2,3]triazolo[4,5-d]pyrimidin-3-yl]-benzamide], in that order: 300 to 3000 nM and 3000 to 50000 nM.
For `c1cnc2ccc(-n3nnc4cnc(Nc5cnn(C6CCOCC6)c5)nc43)cc2c1` [Compound A82, (3-quinolin-6-yl-3H-[1,2,3]triazolo[4,5-d]pyrimidin-5-yl)-[1-(tetrahydro-pyran-4-yl)-1H-pyrazol-4-yl]-amine] the same measures were 300 to 3000 nM and 300 to 3000 nM.
For `CN1CCC(n2cc(Nc3ncc4nnn(-c5ccc6[nH]c(C(F)(F)F)nc6c5)c4n3)cn2)CC1` [Compound A95, [1-(1-methyl-piperidin-4-yl)-1H-pyrazol-4-yl]-[3-(2-trifluoromethyl-1H-benzoimidazol-5-yl)-3H-[1,2,3]triazolo[4,5-d]pyrimidin-5-yl]-amine] the same measures were less than 300 nM and 3000 to 50000 nM.
Regarding `CCn1cc(Nc2ncc3nnn(-c4ccc(C(N)=O)cc4)c3n2)cn1` [Compound A70, 4-[5-(1-ethyl-1H-pyrazol-4-ylamino)-[1,2,3]triazolo[4,5-d]pyrimidin-3-yl]-benzamide], the IC50 at GCN2 [1] was less than 300 nM; on GCN2 [2], 3000 to 50000 nM.
For `Fc1cc(-n2nnc3cnc(Nc4cnn(C5CCOCC5)c4)nc32)ccc1Cl` [Compound A81, [3-(4-chloro-3-fluoro-phenyl)-3H-[1,2,3]triazolo[4,5-d]pyrimidin-5-yl]-[1-(tetrahydro-pyran-4-yl)-1H-pyrazol-4-yl]-amine] the same measures were less than 300 nM and 300 to 3000 nM.
As for `Fc1cccc(-n2nnc3cnc(Nc4cnn(CCn5cccn5)c4)nc32)c1` [Compound A126, [3-(3-fluoro-phenyl)-3H-[1,2,3]triazolo[4,5-d]pyrimidin-5-yl]-[1-(2-pyrazol-1-yl-ethyl)-1H-pyrazol-4-yl]-amine], the IC50 against GCN2 [1] is less than 300 nM; on GCN2 [2] it was 3000 to 50000 nM.
For `CCOc1ccc(-n2nnc3cnc(Nc4cnn(CCC5CCNCC5)c4)nc32)cc1` [Compound A97, [3-(4-ethoxy-phenyl)-3H-[1,2,3]triazolo[4,5-d]pyrimidin-5-yl]-[1-(2-piperidin-4-yl-ethyl)-1H-pyrazol-4-yl]-amine] the same measures were less than 300 nM and 300 to 3000 nM.
For `CN1CCC(n2cc(Nc3ncc4nnn(-c5ccc6ncccc6c5)c4n3)cn2)CC1` [Compound A75, [1-(1-methyl-piperidin-4-yl)-1H-pyrazol-4-yl]-(3-quinolin-6-yl-3H-[1,2,3]triazolo[4,5-d]pyrimidin-5-yl)-amine] the same measures were less than 300 nM and 300 to 3000 nM.
For `CC1(C)C(=O)Nc2cc(-n3nnc4cnc(Nc5cnn(C6CCOCC6)c5)nc43)ccc21` [Compound A85, 3,3-dimethyl-6-{5-[1-(tetrahydro-pyran-4-yl)-1H-pyrazol-4-ylamino]-[1,2,3]triazolo[4,5-d]pyrimidin-3-yl}-1,3-dihydro-indol-2-one] the same measures were less than 300 nM and 300 to 3000 nM.
`CCOc1ccc(-n2nnc3cnc(Nc4cnn(CCn5cccn5)c4)nc32)cc1` [Compound A54, [3-(4-ethoxy-phenyl)-3H-[1,2,3]triazolo[4,5-d]pyrimidin-5-yl]-[1-(2-pyrazol-1-yl-ethyl)-1H-pyrazol-4-yl]-amine]: the values for the IC50 against GCN2 [1] and on GCN2 [2] were less than 300 nM and 300 to 3000 nM, respectively.
For `CCOc1ccc(-n2nnc3cnc(Nc4cnn(CCCC5CCNCC5)c4)nc32)cc1` [Compound A125, [3-(4-ethoxy-phenyl)-3H-[1,2,3]triazolo[4,5-d]pyrimidin-5-yl]-[1-(3-piperidin-4-yl-propyl)-1H-pyrazol-4-yl]-amine] the same measures were less than 300 nM and less than 300 nM.
